Tests used:
[1] = Absorption spectrum / absorbance at 780 nm with a spectrophotometer; format: physicochemical; details: ICG 0.5 mg/mL, gelatin 40 mg/mL; FIG. 2, FIG. 5
Procedure: The absorption spectrum of the obtained gelatin-ICG complex 1 was measured with a spectrophotometer (Beckman Coulter, Inc.).
The absorption spectrum and the absorbance at 780 nm of the gelatin-ICG complex 1 are illustrated in FIGS. 2 and 3, respectively. The absorption spectrum and the absorbance at 780 nm of ICG are also illustrated in FIGS. 2 and 3, respectively, as a comparative example.
The gelatin-ICG complex 1, 3, 4, 5, or 6 (final concentration, 40 or 100 mg/mL) and an ICG solution (final concentration, 0.5 mg/mL) were mixed to obtain a gelatin-ICG complex.
The complexes and the mixtures were prepared at final concentrations of ICG and a gelatin of 0.5 mg/mL and 40 mg/mL, respectively.
An ICG solution (final concentration, 0.1 mg/mL) and a gelatin (weight-average molecular weight, 10,000; final concentration, 100 m g/mL) were mixed to obtain a mixture (gelatin-ICG mixture) of a gelatin and ICG. The absorption spectrum of the obtained gelatin-ICG mixture was measured with a spectrophotometer. The results are illustrated in FIG. 19.

[2] = Stability: absorption spectrum with time in PBS or PBS containing albumin at 37° C.; format: physicochemical
Procedure: To evaluate stability of the gelatin-ICG complex 1, the gelatin-ICG complex 1 was allowed to stand in PBS (phosphate buffered saline) or in PBS containing albumin (40 mg/mL) at 37° C., and the absorption spectrum was measured with time.

[3] = test system: cancer-bearing mouse having a cancer site in the left hindlimb; experiment: In vivo kinetics by fluorescent imaging in cancer-bearing mouse; details: caudal vein dosing, ICG 0.5 mg/ml; FIG. 17A-C, 18A
Procedure: After the gelatin-ICG complex 1 was dosed from the caudal vein of a cancer-bearing mouse having a cancer site in the left hindlimb, images were taken over time with a fluorescent imaging apparatus (GE Healthcare), and in vivo kinetics of the gelatin-ICG complex 1 were evaluated.
Furthermore, as a comparative example, ICG alone at the same concentration (0.5 mg/ml) was intravenously dosed to a cancer-bearing mouse, and a similar evaluation was performed. Changes with time in the fluorescent imaging after dosing the gelatin-ICG complex 1 are illustrated in FIG. 17A. Changes with time after dosing ICG alone are illustrated in FIG. 17B. Changes with time in the fluorescence intensity in these cancer tissues are illustrated in FIG. 17C.
A gelatin-ICG complex 7 including a gelatin derivative 7 (DSPE 67% introduced) fluorescently labeled with Cy5.5 and ICG was prepared and dosed to a cancer-bearing mouse in the same manner as in Example 15 to evaluate in vivo kinetics of the gelatin derivative 7 itself. Changes with time in the fluorescent imaging are illustrated in FIG. 18A. Furthermore, ICG alone at the same concentration was dosed to a cancer-bearing mouse as a comparative example. Changes with time in the fluorescent imaging are illustrated in FIG. 18B.

SMILES: CC1(C)C(/C=C/C=C/C=C/C=C2/N(CCCCS(=O)(=O)[O-])c3ccc4ccccc4c3C2(C)C)=[N+](CCCCS(=O)(=O)[O-])c2ccc3ccccc3c21.[Na+] [ICG, indocyanine green]
- absorption spectrum (associate around 700 nm, monomer around 780 nm) [1]: absorbance on the long wavelength side was low
- changes with time in absorption spectrum / absorbance (λmax) ([2]; PBS containing albumin (40 mg/mL)): stability was slightly inferior as compared with the stability of the gelatin-ICG complex 1
- changes with time in absorption spectrum / absorbance (λmax) ([2]; PBS without albumin): changed greatly with time
- distribution of ICG to cancer tissue, fluorescence with time [3]: distributed to the cancer tissue temporarily after dosing ICG alone and eliminated with time
